The source of these data is patent publication US12509439B2, “Anti-malarial agents” (UNIVERSITY OF KENTUCKY RESEARCH FOUNDATION, priority 2020, dated 2025).

The subject of data set [1] is Plasmodium falciparum (3D7). The experiment in a line: In-vitro potency against P. falciparum (3D7 strain), SYBR Green growth inhibition. It counts as cell-based. The following applies: P. falciparum 3D7, asexual intraerythrocytic stage, SYBR Green fluorescence. On the procedure: Cultures of the widely-used malaria reference strain of chloroquine-sensitive Plasmodium falciparum (3D7) were maintained in a 1.25% suspension of human red blood cells cultured in RPMI 1640 medium (pH 7.3) supplemented with 0.5% Albumax II (Gibco Life Technologies, San Diego, CA), 12 mM sodium bicarbonate, 0.2 mM hypoxanthine, and 20 mg/L gentamicin at 37° C., in an atmosphere of 1% O2, 3% CO2 with a balance of nitrogen (Human malaria parasites in continuous culture. Trager W et al., 1976, Science, 193: 673-675). Growth inhibition was quantified using a fluorescence assay utilising the binding of SYBR Green (Novel, rapid, and inexpensive cell-based quantification of antimalarial drug efficacy. Bennett T. N. et al., 2004, Antimicrob. Agents Chemother., 48: 1807-1810) to double stranded DNA, which emits a fluorescent signal at 528 nm after excitation at 485 nm. Mefloquine was used as a drug control to monitor the quality of the assay (Z′=0.6 to 0.8, where Z′ is a measure of the discrimination between the positive and negative controls on a screen plate). Hits were confirmed by full-potency curves with dose-response curves determined from a minimum of 3 independent experiments. Compound bioactivity was expressed as EC50, the effective concentration of compound causing 50% parasite death. All data were processed using IDBS ActivityBase. Raw data was converted into percent inhibition through linear regression by setting the high inhibition control as 100% and the no inhibition control as 0%. Quality control criteria for passing plates were as follows: z′>0.5, S:B>3, % CV(no inhibition control)<15. The formula used to calculate z′ is
Curve fitting was carried out using the following 4 parametric equation:
where A=% inhibition at bottom, B=% inhibition at top, C=EC50, D=slope, x=inhibitor concentration and y=% inhibition. If curve definition was poor, B was fixed to 100.

Data set [2] can be described thus: Microsomal intrinsic clearance, human liver microsomes. Type of data set: in vitro ADME. The conditions noted are these: human liver microsomes (pooled), pH 7.4, 45 min, NADPH. On the procedure:
(§1) The compounds of the invention (1 μM) were incubated in suspension with human (rat or mouse) liver microsomes pooled from multiple donors (>10) and samples taken at 5 time points over the course of a 45 min experiment and analysed by LC MS/MS. Microsomes (final protein concentration 0.5 mg/mL), 0.1 M phosphate buffer pH 7.4 and test compound (final substrate concentration 1 μM; final DMSO concentration 0.25%) were pre-incubated at 37° C. prior to the addition of NADPH (final concentration 1 mM) to initiate the reaction. A minus cofactor control incubation was included for each compound tested where 0.1 M phosphate buffer pH 7.4 is added instead of NADPH (minus NADPH). All incubations were performed in duplicate for each test compound and the results averaged. Each compound is incubated for 0, 5, 15, 30 and 45 min. The control (minus NADPH) was incubated for 45 min only. The reactions were stopped by transferring incubate into acetonitrile at the appropriate time points, in a 1:3 ratio.
(§2) The termination plates were centrifuged at 3,000 rpm for 20 min at 4° C. to precipitate the protein. Following protein precipitation, the sample supernatants were combined in cassettes of up to 4 compounds, internal standard added and samples analysed by LC-MS/MS. From a plot of ln peak area ratio (compound peak area/internal standard peak area) against time, the gradient of the line is determined. Subsequently, half-life (t½) and intrinsic clearance (CLint) are calculated using the equations below: Elimination rate constant (k)=(−gradient) Half-life (t1/2)(min)=0.693/k Intrinsic clearance (i.e. CLint)(μL/min/mg protein)=V×0.693/t1/2 where V=Incubation volume (μL)/Microsomal protein (mg)
(§3) Verapamil and dextromethorphan were included in the assay as controls and if the values for these compounds were not within the specified limits the results were rejected and the experiment repeated.
For orientation: Liver microsomes are vesicles of endoplasmic reticulum, rich in cytochrome P450 enzymes.

Data set [3] is described as follows: Microsomal intrinsic clearance, mouse liver microsomes. It counts as in vitro ADME. The following applies: mouse liver microsomes (pooled), pH 7.4, 45 min, NADPH. On the procedure: as §1, §2, §3
Data set [4] in a line: Microsomal intrinsic clearance, rat liver microsomes. It counts as in vitro ADME. The following applies: rat liver microsomes (pooled), pH 7.4, 45 min, NADPH. On the procedure:
as §1, §2, §3

The nature of data set [5]: Hepatocyte intrinsic clearance, cryopreserved human hepatocytes. Type of data set: in vitro ADME. The following applies: cryopreserved human hepatocytes in suspension (pooled), 60 min. On the procedure:
The compounds of the invention (3 μM) were incubated in suspension with cryopreserved human (rat or mouse) hepatocytes pooled from multiple donors (>10) and samples taken at 6 time points over the course of a 60 min experiment and analysed by LC MS/MS. Williams E media supplemented with 2 mM L-glutamine and 25 mM HEPES and test compound (final substrate concentration 3 μM; final DMSO concentration 0.25%) were pre-incubated at 37° C. prior to the addition of a suspension of cryopreserved hepatocytes (final cell density 0.5×10^6 viable cells/mL in Williams E media supplemented with 2 mM L glutamine and 25 mM HEPES) to initiate the reaction. The final incubation volume is 500 μL. The reactions are stopped by transferring aliquots of incubate into acetonitrile at the appropriate time points, in a 1:2 ratio. The termination plates are centrifuged at 3,000 rpm for 20 min at 4° C. to precipitate the protein. Following protein precipitation, the sample supernatants were combined in cassettes of up to 4 compounds, internal standard was added and analysed by LC MS/MS. From a plot of ln peak area ratio (compound peak area/internal standard peak area) against time, the gradient of the line was determined. Subsequently, half-life (t½) and intrinsic clearance (CLint) were calculated using the equations below: Elimination rate constant (k)=(−gradient) Half-life (t½) (min)=0.693/k Intrinsic clearance (i.e. CLint) (μL/min/million cells)=V×0.693/t1/2
where V=Incubation volume (μL)/Number of cells
Verapamil and umbelliferone were included in the assay as controls and if the values for these compounds are not within the specified limits the results were rejected and the experiment repeated.

The nature of data set [6]: PK parameters in mouse (IV and PO). The conditions noted are these: for PK parameters (mouse): F: 10 mg/kg IV and 10 mg/kg PO; for clearance / half-life: male, Swiss Albino, plasma, IV arm, 10 mg/kg; for clearance: read-out: PK parameters (mouse): Cl; for half-life: read-out: PK parameters (mouse): t1/2. It counts as in vivo. On the procedure: Swiss Albino male mice or Sprague Dawley rats (TCGLS, India) were kept under a 12/12 h light/dark cycle, 22±2° C. temp, 50±20% RH with free access to food and water ad libitum. Mice were selected randomly/based on body weight/age and fasted for 4 h before dosing and until 2 h after dosing. Three mice were used per route of administration. […]
(§4) Blood samples were taken (mice 50 μL, rat 100 μL) at regular timepoints from the saphenous vein (conscious restrained animals) and collected into heparinized capillary tubes and transferred into 0.5 mL microcentrifuge tubes. Samples were processed by centrifugation at 1640 g for 10 min at +4° C. within 30 min of collection and stored at −20° C. until bioanalysis. All samples were mixed with ice-cold acetonitrile containing an internal standard, centrifuged at 4000 rpm for 15 min at 15° C. Supernatant was then half diluted in water and analysed by LCMS/MS analysis to determine analyte peak area/IS peak area (the ratio). Concentration (plasma) of the compounds of the invention was determined by reference to a calibration curve. Pharmacokinetic parameters (Cmax, Tmax, AUC, t1/2, CL, Vd, BA) were calculated using WinNonLin, using non-compartmental analysis (Phoenix, Version 6.3). The pharmacokinetic parameters for compounds shown in Table 2 support that compounds of the invention have pharmacokinetic properties associated with treatment of malaria via the oral route and that compounds have substantially longer half-lives than the reference compound.

A short description of data set [7]: PK parameters in rat (IV and PO). The conditions noted are these: for PK parameters (rat): F: 1 mg/kg IV and 3 mg/kg PO; for clearance / half-life: Sprague Dawley, plasma, IV arm, 1 mg/kg; for clearance: read-out: PK parameters (rat): Cl; for half-life: read-out: PK parameters (rat): t1/2. It counts as in vivo. On the procedure:
Swiss Albino male mice or Sprague Dawley rats (TCGLS, India) were kept under a 12/12 h light/dark cycle, 22±2° C. temp, 50±20% RH with free access to food and water ad libitum. Mice were selected randomly/based on body weight/age and fasted for 4 h before dosing and until 2 h after dosing. Three mice were used per route of administration. For IV determination (1 mg/kg, dose volume 5 ml/kg) the dose was administered by injection into the lateral tail vein (rats are anaesthetized using 3% v/v isoflurane: oxygen mixture). For PO determination (3 mg/kg, dose volume 10 ml/kg) the dose was administered by oral gavage in conscious animals.
as §4

The structures appear in SMILES notation. Some results are limits rather than exact numbers.

Turning to `CC(C)Oc1ccc(C2C(C(=O)Nc3ccc(F)c(C#N)c3)c3ccccc3C(=O)N2CC(F)(F)F)cn1` (racemic) [(2), (+, −)-N-(3-cyano-4-fluorophenyl)-3-(6-isopropoxypyridin-3-yl)-1-oxo-2-(2,2,2-trifluoroethyl)-1,2,3,4-tetrahydroisoquinoline-4-carboxamide], the EC50 (in general, the concentration that produces a half-maximal response) in data set [1] is 80 nM. In data set [2], the microsomal CLint (commonly the rate of metabolic loss divided by the concentration) at 1 μM came out at 13 µL/min/mg.

`N#Cc1cc(NC(=O)[C@H]2c3ccccc3C(=O)N(CC(F)(F)F)[C@@H]2c2ccc(C(F)(F)F)nc2)ccc1F` [(3a), (3S,4S)—N-(3-cyano-4-fluorophenyl)-1-oxo-2-(2,2,2-trifluoroethyl)-3-(6-(trifluoromethyl)pyridin-3-yl)-1,2,3,4-tetrahydroisoquinoline-4-carboxamide] had an EC50 in data set [1] of 70 nM. The microsomal CLint at 1 μM was under 10 µL/min/mg in data set [3], under 10 µL/min/mg in data set [4] and 6 µL/min/mg in data set [2]. In addition, the hepatocyte CLint (in general, the rate of metabolic loss divided by the concentration) at 3 μM in data set [5] was under 10 µL/min/1e6 cells. Moreover, the “PK parameters (mouse): F” value in data set [6] was “F = 95%”. Further, the results for the clearance in data set [6] and in data set [7] were 1.67 mL/min/kg and 0.667 mL/min/kg, respectively. For the same compound, the half-life in data set [6] and in data set [7] was 660 min throughout. Further, in data set [7], the “PK parameters (rat): F” value is listed as “F = 95%”.

In data set [1], `N#Cc1cc(NC(=O)[C@H]2c3ccccc3C(=O)N(CC(F)(F)F)[C@@H]2c2ccc(OCC(F)(F)F)nc2)ccc1F` [(4a), (3S,4S)—N-(3-cyano-4-fluorophenyl)-1-oxo-3-(6-(2,2,2-trifluoroethoxy)pyridin-3-yl)-2-(2,2,2-trifluoroethyl)-1,2,3,4-tetrahydroisoquinoline-4-carboxamide] displayed an EC50 of 53 nM. Also, in data set [3], the intrinsic metabolic clearance (microsomal CLint) at 1 μM is under 10 µL/min/mg. Besides, the intrinsic clearance (microsomal CLint) at 1 μM in data set [4] was under 10 µL/min/mg. In data set [2], this compound registered a microsomal CLint at 1 μM of under 3 µL/min/mg. Further, in data set [5], the intrinsic metabolic clearance (hepatocyte CLint) at 3 μM is under 3 µL/min/1e6 cells. In data set [6], the “PK parameters (mouse): F” value was “F = 56%”, the clearance turned out to be 2.67 mL/min/kg and the half-life is 2460 min. In addition, in data set [7], the “PK parameters (rat): F” value is given as “F = 33%”, the clearance came to 0.5 mL/min/kg and the half-life amounted to 5100 min.

Turning to `CC(=O)Nc1ccc([C@@H]2[C@@H](C(=O)Nc3ccc(F)c(C#N)c3)c3ccccc3C(=O)N2CC(F)(F)F)cn1` [(5a), (3S,4S)-3-(6-acetamidopyridin-3-yl)-N-(3-cyano-4-fluorophenyl)-1-oxo-2-(2,2,2-trifluoroethyl)-1,2,3,4-tetrahydroisoquinoline-4-carboxamide], in data set [1], the EC50 was 40 nM.

With `N#Cc1ccc([C@@H]2[C@@H](C(=O)Nc3ccc(F)c(C#N)c3)c3ccccc3C(=O)N2CC(F)(F)F)cn1` [(6a), (3S,4S)—N-(3-cyano-4-fluorophenyl)-3-(6-cyanopyridin-3-yl)-1-oxo-2-(2,2,2-trifluoroethyl)-1,2,3,4-tetrahydroisoquinoline-4-carboxamide], the concentration giving a half-maximal response (EC50) in data set [1] amounted to 68 nM. In addition, the microsomal CLint at 1 μM in data set [3] was under 10 µL/min/mg; in data set [2], under 3 µL/min/mg. Besides, in data set [5], the intrinsic clearance (hepatocyte CLint) at 3 μM was under 3 µL/min/1e6 cells.

Turning to `N#Cc1cc(NC(=O)[C@H]2c3ccccc3C(=O)N(CC(F)(F)F)[C@@H]2c2ccc(OC(F)F)nc2)ccc1F` [(7a), (3S,4S)—N-(3-cyano-4-fluorophenyl)-3-(6-(difluoromethoxy)pyridin-3-yl)-1-oxo-2-(2,2,2-trifluoroethyl)-1,2,3,4-tetrahydroisoquinoline-4-carboxamide], in data set [1], the EC50 was 68 nM. This compound also had a microsomal CLint at 1 μM in data set [3] of under 10 µL/min/mg. The same compound returned a microsomal CLint at 1 μM in data set [2] of under 3 µL/min/mg. The same compound yielded an intrinsic clearance (hepatocyte CLint) at 3 μM in data set [5] of under 10 µL/min/1e6 cells. Moreover, in data set [6], the “PK parameters (mouse): F” value was “F = 108%”, the clearance stood at 2.67 mL/min/kg and the half-life is 1080 min. Further, in data set [7], the “PK parameters (rat): F” value is reported as “F = 108%”, the clearance was determined as 1.5 mL/min/kg and the half-life was found to be 2280 min.

Consider `N#Cc1cc(NC(=O)[C@H]2c3ccccc3C(=O)N(CC(F)(F)F)[C@@H]2c2ccc(C(F)F)nc2)ccc1F` [(8a), (3S,4S)—N-(3-cyano-4-fluorophenyl)-3-(6-(difluoromethyl)pyridin-3-yl)-1-oxo-2-(2,2,2-trifluoroethyl)-1,2,3,4-tetrahydroisoquinoline-4-carboxamide], for which a half-maximal response in data set [1] (EC50) required 59 nM. In addition, the microsomal CLint at 1 μM in data set [3] is under 10 µL/min/mg. Further, the microsomal CLint at 1 μM in data set [2] was under 3 µL/min/mg. For the same compound, in data set [5], the hepatocyte CLint at 3 μM is 4 µL/min/1e6 cells. Further, in data set [6], the “PK parameters (mouse): F” value is on record as “F = 37%”, the clearance was 3.33 mL/min/kg and the half-life amounted to 3360 min.
